Results from patent publication US20200255436A1, “CORTICOTROPIN RELEASING FACTOR RECEPTOR ANTAGONISTS” (Spruce Biosciences, Inc., priority 2019, published 2020).
Where two headings read alike, the source gives them in different places.

Experiments:
[1] = Study 1: single escalating oral dose pharmacokinetics, fed and fasted; type: in vivo, human; settings: for Cmax / Tmax / AUC(0-inf) / AUC(0-t) / Vd/F / half-life: human, plasma, po; for AUC(0-t): read-out: AUC0-tlast
Procedure: Study 1 was the first-in-human study that investigated the safety, tolerability, and PK of single-escalating doses of Compound 1, given orally, to healthy adult subjects. […] The data from this study were used for the selection of doses for Study 2.
In Study 1, Compound 1 was administered to healthy adult subjects as a single PO dose of 2, 10, 50, 150, 400, or 800 mg in the fed state and 150 mg in the fasted state. Absorption occurred moderately late, achieving peak Cmax between 4 to 6 hours following dosing in the fed state.
When Compound 1 was given in the fed state, median time to reach maximum plasma concentration (Tmax) occurred between 4 and 6 hours.
As part of this single-dose escalation study, a food effect PK investigation was performed to examine Compound 1 exposures in both the fed and fasted states at the 150-mg dose level. A total of 6 subjects were administered 150 mg Compound 1 in each of these 2 dosing groups. Of these 6 subjects, 4 subjects received Compound 1 at the same dose in both fed and fasted states. […] Table 2 provides a summary of the PK parameters at the 150-mg dose level under both fed and fasted state conditions.
PK parameters AUC0-∞ and Cmax were analyzed separately for dose proportionality for Compound 1 from 50 to 800 mg when administered in the fed state. […] Dose proportionality across administered doses in the fed state could not be concluded on the basis of AUC0-∞ or Cmax.

[2] = Study 2 Part A: multiple-dose (14 days) pharmacokinetics; type: in vivo, human; settings: for CLaa/F / WT-norm Claa/F: Day 14; for CLaa/F: geometric mean; for WT-norm Claa/F: weight normalized
Procedure: The 2-part multiple-dose study, Study 2, determined the safety and tolerability of repeated daily doses of Compound 1 and investigated the effects on biomarkers of relevance for the treatment of alcohol dependence.
PK were also evaluated in the multiple-dose, dose-escalation study, Study 2. In Part A of the study, subjects were divided into 3 cohorts and received 50, 150, or 200 mg Compound 1 or placebo for 14 consecutive days (at least 6 subjects received Compound 1 and 2 subjects received placebo in each cohort). […] All dosing occurred in the fed state. An assessment of diurnal cortisol levels, plus when under conditions of glucose clamp, were also carried out both prior to and during the dosing period.
Consistent with the single-dose study (Study 1), concentrations appeared to decline in a bi-exponential manner, characterized by a rapid decrease within the first 24 hours. […] The Tmax appeared to be consistent across doses. Overall half-lives, weight normalized CL/F and V/F were consistent for 150 and 200 mg. However, the values for these latter 2 parameters were almost doubled at the 50-mg dose level. Variability (CV%) for apparent clearance and volume of distribution were large and not reduced with weight-normalization.
Table 8 presents the results of the dose proportionality assessment for the AUC0-24 and Cmax over the tested dose range.

[3] = 50 mg, 50 mg single oral dose, fed, geometric mean
[4] = 150 mg, 150 mg single oral dose, fasted, geometric mean
[5] = 150 mg, 150 mg single oral dose, fed, geometric mean
[6] = 400 mg, 400 mg single oral dose, fed, geometric mean
[7] = 800 mg, 800 mg single oral dose, fed, geometric mean

- CL/F ([1]; 50 mg single oral dose, fed, geometric mean): 302 L/h
- CL/F ([1]; 150 mg single oral dose, fasted, geometric mean): 454 L/h
- CL/F ([1]; 150 mg single oral dose, fed, geometric mean): 157 L/h
- CL/F ([1]; 400 mg single oral dose, fed, geometric mean): 155 L/h
- CL/F ([1]; 800 mg single oral dose, fed, geometric mean): 165 L/h
- AUC0-∞ increase for every doubling of dose relative to dose proportionality ([1]; 50 to 800 mg, fed state): 1.74 times
- mean AUC0-∞, fed state relative to fasted state ([1]; 150-mg single dose): approximately 3 fold
- mean Cmax, fed state relative to fasted state ([1]; 150-mg single dose): ~11 fold
- Cmax ([1]; 2 mg, 2 mg single oral dose, fed, geometric mean): 0.867 ng/mL
- Tmax ([1]; 2 mg, 2 mg single oral dose, fed, median, read-out: Tmax): 6 h
- Cmax ([1]; 10 mg, 10 mg single oral dose, fed, geometric mean): 3.01 ng/mL
- Tmax ([1]; 10 mg, 10 mg single oral dose, fed, median, read-out: Tmax): 4 h
- AUC(0-inf) [1, 3]: 165 ng·h/mL
- Cmax [1, 3]: 19.5 ng/mL
- AUC(0-t) [1, 3]: 152 ng·h/mL
- Vd/F ([1]; 50 mg, 50 mg single oral dose, fed, geometric mean, read-out: VSS/F): 8080 L
- Vd/F ([1]; 50 mg, 50 mg single oral dose, fed, geometric mean, read-out: VZ/F): 13500 L
- half-life ([1]; 50 mg, 50 mg single oral dose, fed, geometric mean, read-out: t1/2 (converted)): 31 h
- Tmax ([1]; 50 mg, 50 mg single oral dose, fed, median, read-out: Tmax): 4 h
- AUC(0-inf) [1, 4]: 331 ng·h/mL
- Cmax [1, 4]: 8.22 ng/mL
- AUC(0-t) [1, 4]: 288 ng·h/mL
- Vd/F ([1]; 150 mg, 150 mg single oral dose, fasted, geometric mean, read-out: VSS/F): 25200 L
- Vd/F ([1]; 150 mg, 150 mg single oral dose, fasted, geometric mean, read-out: VZ/F): 25100 L
- half-life ([1]; 150 mg, 150 mg single oral dose, fasted, geometric mean, read-out: t1/2 (converted)): 38.4 h
- Tmax ([1]; 150 mg, 150 mg single oral dose, fasted, median, read-out: Tmax): 10.1 h
- AUC(0-inf) [1, 5]: 956 ng·h/mL
- Cmax [1, 5]: 93.4 ng/mL
- AUC(0-t) [1, 5]: 891 ng·h/mL
- Vd/F ([1]; 150 mg, 150 mg single oral dose, fed, geometric mean, read-out: VSS/F): 4600 L
- Vd/F ([1]; 150 mg, 150 mg single oral dose, fed, geometric mean, read-out: VZ/F): 6620 L
- half-life ([1]; 150 mg, 150 mg single oral dose, fed, geometric mean, read-out: t1/2 (converted)): 29.2 h
- Tmax ([1]; 150 mg, 150 mg single oral dose, fed, median, read-out: Tmax): 4 h
- AUC(0-inf) [1, 6]: 2580 ng·h/mL
- Cmax [1, 6]: 207 ng/mL
- AUC(0-t) [1, 6]: 2300 ng·h/mL
- Vd/F ([1]; 400 mg, 400 mg single oral dose, fed, geometric mean, read-out: VSS/F): 6580 L
- Vd/F ([1]; 400 mg, 400 mg single oral dose, fed, geometric mean, read-out: VZ/F): 9890 L
- half-life ([1]; 400 mg, 400 mg single oral dose, fed, geometric mean, read-out: t1/2 (converted)): 44.2 h
- Tmax ([1]; 400 mg, 400 mg single oral dose, fed, median, read-out: Tmax): 4 h
- AUC(0-inf) [1, 7]: 4850 ng·h/mL
- Cmax [1, 7]: 382 ng/mL
- AUC(0-t) [1, 7]: 4390 ng·h/mL
- Vd/F ([1]; 800 mg, 800 mg single oral dose, fed, geometric mean, read-out: VSS/F): 6820 L
- Vd/F ([1]; 800 mg, 800 mg single oral dose, fed, geometric mean, read-out: VZ/F): 9970 L
- half-life ([1]; 800 mg, 800 mg single oral dose, fed, geometric mean, read-out: t1/2 (converted)): 41.9 h
- Tmax ([1]; 800 mg, 800 mg single oral dose, fed, median, read-out: Tmax): 6 h
- half-life ([1]; after a single PO dose (fed and fasted state), across dose levels, read-out: Mean half-life (t1/2)): 31 to 44 h
- Tmax ([1]; single oral doses 2-800 mg, fed state, read-out: median time to reach maximum plasma concentration (Tmax)): 4 to 6 h
- RA (accumulation ratio, Day 14 AUC0-24/Day 1 AUC0-24) ([2]; 50 mg daily): 2.80
- CLaa/F ([2]; 50 mg daily): 183 L/h
- WT-norm Claa/F ([2]; 50 mg daily): 48 mL/min/kg
- RA (accumulation ratio, Day 14 AUC0-24/Day 1 AUC0-24) ([2]; 150 mg daily): 2.51
- CLaa/F ([2]; 150 mg daily): 101 L/h
- WT-norm Claa/F ([2]; 150 mg daily): 23.7 mL/min/kg
- RA (accumulation ratio, Day 14 AUC0-24/Day 1 AUC0-24) ([2]; 200 mg daily): 3.65
- CLaa/F ([2]; 200 mg daily): 98 L/h
- WT-norm Claa/F ([2]; 200 mg daily): 25 mL/min/kg
SMILES: CCC(CC)c1cc(C)nc2c(-c3sc(N4CCOCC4)nc3Cl)c(C)nn12 [Compound 1, 4-(4-chloro-5-(2,5-dimethyl-7-(pentan-3-yl)pyrazolo[1,5-a]pyrimidin-3-yl)thiazol-2-yl)morpholine]
